US20250160324A1, “ACIDIFIED OLEOGEL AND METHODS OF USE” (University of Massachusetts, priority 2023, published 2025)

Assays:
[1] = tested on: desiccated Salmonella enterica subsp. enterica serovar Enteritidis phage type 30 (ATCC BAA-1045); assay: Antimicrobial assay against cells desiccated on stainless-steel coupons; format: cell-based; settings: 200 mM organic acid, 30-min contact; for MLR ± SD, W/O emulsion, 22° C. / MLR ± SD, W/O emulsion, 45° C.: 1% v/v water; for MLR ± SD, W/O emulsion, 22° C. / MLR ± SD, W/O emulsion, 45° C. / MLR ± SD, W/O emulsion with glycerol, 22° C. / MLR ± SD, W/O emulsion with glycerol, 45° C.: 75% ERH; for MLR ± SD, Oil with PGPR, 22° C. / MLR ± SD, Oil with PGPR, 45° C.: cells desiccated to 75% ERH
[2] = Water activity (aw) by Dewpoint aw meter; format: physicochemical; settings: 200 mM organic acid

SMILES	MLR ± SD, W/O emulsion, 22° C. [1]	MLR ± SD, W/O emulsion, 45° C. [1]	MLR ± SD, W/O emulsion with glycerol, 22° C. [1]	MLR ± SD, W/O emulsion with glycerol, 45° C. [1]	MLR ± SD, Oil with PGPR, 22° C. [1]	MLR ± SD, Oil with PGPR, 45° C. [1]	MLR ± SD, Oil with PGPR, 22° C. ([1]; listed as C2)	MLR ± SD, Oil with PGPR, 45° C. ([1]; listed as C2)	MLR ± SD, Oil with PGPR, 22° C. ([1]; listed as C3)	MLR ± SD, Oil with PGPR, 45° C. ([1]; listed as C3)	measured solution aw of acidified oil [2]
CC(=O)O [Acetic, acetic/ethanoic acid]	>6.52	>6.52	0.81 ± 0.24	2.53 ± 0.75	0.69 ± 0.19	1.42 ± 0.14	0.69	1.42	–	–	–
CCC(=O)O [Propionic, propionic/propanoic acid]	>6.52	>6.52	0.73 ± 0.22	1.41 ± 0.66	0.89 ± 0.24	1.11 ± 0.27	–	–	0.89	1.11	–
O=CO [Formic, formic/methanoic acid]	–	–	–	–	–	–	–	–	–	–	0.51
CCCC(=O)O [Butyric, butyric/butanoic acid]	0.55 ± 0.06	>6.52	0.31 ± 0.16	1.40 ± 0.31	–	0.52 ± 0.13	–	–	–	–	–
CCCCCCCCCC(=O)O [Capric, capric/decanoic acid]	0.67 ± 0.17	>6.52	0.37 ± 0.06	0.57 ± 0.09	0.23 ± 0.04	0.28 ± 0.09	–	–	–	–	–
CCCCCCC(=O)O [Enanthic, enanthic/heptanoic acid]	0.34 ± 0.26	>6.52	–	0.79 ± 0.22	–	0.34 ± 0.03	–	–	–	–	–
CCCCCCCCC(=O)O [Pelargonic, pelargonic/nonanoic acid]	0.31 ± 0.10	>6.52	–	0.30 ± 0.09	–	0.39 ± 0.11	–	–	–	–	–
CCCCCCCC(=O)O [Caprylic, caprylic/octanoic acid]	0.94 ± 0.26	>6.52	0.56 ± 0.18	0.74 ± 0.11	–	0.49 ± 0.26	–	–	–	–	–
CCCCCCCCCCCC(=O)O [Lauric, lauric/dodecanoic acid]	1.05 ± 0.28	>6.52	0.49 ± 0.12	1.02 ± 0.04	0.16 ± 0.06	0.40 ± 0.17	–	–	–	–	–
CCCCCCCCCCC(=O)O [Undecylic, undecylic/undecanoic acid]	0.38 ± 0.09	>6.52	–	0.22 ± 0.18	–	0.31 ± 0.03	–	–	–	–	–
CCCCC(=O)O [Valeric, valeric/pentanoic acid]	0.11 ± 0.05	>6.52	–	1.12 ± 0.16	–	0.31 ± 0.02	–	–	–	–	–
CCCCCC(=O)O [Caproic, caproic/hexanoic acid]	0.72 ± 0.18	>6.52	0.10 ± 0.03	0.74 ± 0.48	0.21 ± 0.09	0.68 ± 0.08	–	–	–	–	–
